Assay in all cases: in vivo phage display selection, frequency of selected clone
Assay [1] deals with cardiac muscle. The settings on record: mouse. The protocol: (§1) In round one of selection, the phage library is injected intravenously and multiple tissues may be recovered. In subsequent rounds, the phage purified from specific tissues recovered in round one is injected intravenously, and thus, only that tissue is recovered. In rounds 2-4, separate animals are needed for each tissue being examined. After the last round, the phages are plated on a lawn of bacteria and a number of phage plaques are isolated and the DNA sequenced. Of these a certain percentage will represent the dominant selected clone. FIG. 2 provides a scheme for selection of tissue specific phage.
(§2) In the Table, “Four rounds of selection . . . ,” means that in round 1, the phage library was injected intravenously, and a specific tissue was recovered. In round 1, multiple tissues are recovered from one animal (skeletal muscle, cardiac muscle, etc.). In any subsequent round, the phage purified from a specific tissue is injected intravenously, and only that tissue is recovered. Thus, in rounds 2-4, separate animals are needed for each tissue being examined. After the last round, the phage are plated on a lawn of bacteria and a number of phage plaques are isolated and the DNA sequenced. This is represented in the Table by “number of phage clones sequenced.” Of these, a certain percentage will represent the dominant selected clone.
(§3) The experiments disclosed herein, represent the first in vivo selection in any species other than mouse. Generally, phage was left to circulate for one hour.

For a further assay, the system named is murine muscle. Also noted: species or system mouse. The settings on record: four rounds in vivo. As to the method:
as §1
In the Table, “Four rounds of selection . . . ,” means that in round 1, the phage library was injected intravenously, and a specific tissue was recovered. In round 1, multiple tissues are recovered from one animal (skeletal muscle, cardiac muscle, etc.). In any subsequent round, the phage purified from a specific tissue is injected intravenously, and only that tissue is recovered. Thus, in rounds 2-4, separate animals are needed for each tissue being examined. After the last round, the phage are plated on a lawn of bacteria and a number of phage plaques are isolated and the DNA sequenced. This is represented in the Table by “number of phage clones sequenced.” Of these, a certain percentage will represent the dominant selected clone. […]

Assay [2] has as its system cardiac muscle. Also noted: species or system dog. Particulars: for FREQUENCY (of selected phage clone among clones sequenced): 3 in vivo rounds in cardiac muscle, dog. As to the method:
as §1, §2, §3

In the next assay the test system is skeletal muscle. As to the method: as §1, §2, §3
The subject of a further assay is neuro muscular tissue. The settings on record: 4 in vivo rounds in neural muscular tissue; mouse. The protocol:
as §1, §2, §3

[3] abbreviates: 4 in vivo rounds in cardiac muscle.
Setting [4] is: 4 in vivo rounds in skeletal muscle, mouse.

Regarding “HVHTLPT (Phage display library peptides) [His-Val-His-Thr-Leu-Pro-Thr]”, in the assay with cardiac muscle [1] (setting [3]), the “FREQUENCY (of selected phage clone among clones sequenced)” value is on record as 11%.
Regarding “QWHGPLH (Phage display library peptides) [Gln-Trp-His-Gly-Pro-Leu-His]”, the “FREQUENCY (of selected phage clone among clones sequenced)” value in the assay on cardiac muscle [1] (3 in vivo rounds in cardiac muscle) is reported as 20%.
Take “HAIYPRH (Phage display library peptides) [peptide selected via four rounds in vivo, in murine muscle]”: the “frequency of selected clone” value with murine muscle was 4%.
Take “KAPLTPV (Phage display library peptides) [peptide selected by 3 in vivo phage rounds in dog cardiac muscle]”: in the assay with cardiac muscle [2], the “FREQUENCY (of selected phage clone among clones sequenced)” value is 8%.
Take “GETRAPL (Phage display library peptides) [Gly-Glu-Thr-Arg-Ala-Pro-Leu]”: the “FREQUENCY (of selected phage clone among clones sequenced)” value in the assay with skeletal muscle (setting [4]) is on record as 37%; in the assay with neuro muscular tissue it was 12%.
On to “APVHRPL (Phage display library peptides) [peptide selected via two rounds in vivo, in canine cardiac muscle]”, for which, in the assay on cardiac muscle [2] (two rounds in vivo, in canine cardiac muscle), the “fraction in which the selected clone was found” value was “found in the washed tissue fraction”.
For the substance “MHHTRFY (Phage display library peptides) [Met-His-His-Thr-Arg-Phe-Tyr]”, in the assay with cardiac muscle [1] (setting [3]), the “FREQUENCY (of selected phage clone among clones sequenced)” value stood at 8%.
“WDANGKT (Phage display library peptides) [Trp-Asp-Ala-Asn-Gly-Lys-Thr]”: the “FREQUENCY (of selected phage clone among clones sequenced)” value in the assay with skeletal muscle (2 in vitro on C2C12 myotubes followed by 2 in vivo rounds on skeletal muscle, mouse + dog) is on record as 10%; in the assay with skeletal muscle (setting [4]), 19%.
Regarding “CGHHPVYAC (Phage display library peptides) [Cys-Gly-His-His-Pro-Val-Tyr-Ala-Cys]”, the “FREQUENCY (of selected phage clone among clones sequenced)” value was 20% in the assay with cardiac muscle [2] and 100% in the assay on skeletal muscle (tissue skeletal muscle, dog).
Turning to “SGTLFAN (Phage display library peptides) [peptide selected by 3 in vivo phage rounds in dog cardiac muscle]”, in the assay on cardiac muscle [2], the “FREQUENCY (of selected phage clone among clones sequenced)” value is reported as 28%.
For the substance “ASSLNIA (Phage display library peptides) [Ala-Ser-Ser-Leu-Asn-Ile-Ala]”, the “FREQUENCY (of selected phage clone among clones sequenced)” value in the assay on skeletal muscle (3 in vitro rounds on C2C12 myotubes followed by 2 in vivo rounds on skeletal muscle, mouse) is reported as 40%.

These data come from patent US20020137023A1, “Methods and compositions for targeting compounds to muscle” (Auburn University, priority 1997, published 2002).
